Measurements reported in US20110071124A1, “Compounds that Inhibit Production of sAPPB and AB and Uses Thereof” (The Trustees of Columbia University in the City of New York, priority 2008, published 2011).
Where two headings read alike, the source gives them in different places.

Experiments:
[1] = test system: Aβ40 in Tg2576 primary cortical neurons; assay: Aβ40 ELISA in Tg2576 primary cortical neurons; assay type: cell-based, mouse; settings: 24 hours, normalized to total protein
Protocol: (§1) FIG. 17A-B. LDN-0057228 and CNS-2 reduce Aβ40 and sAPPβ in Tg2576 primary neurons. Primary cortical neurons were cultured from P0 APPsw transgenic pups (Tg2576). DIV-14 neurons were treated for 24 hours with LDN-0057228 or CNS-2 at the indicated concentrations. Data from two independent experiments were pooled. A) Media was collected for Aβ40 ELISA. Raw Aβ40 values were normalized to total protein to control for variations in plating density or any cytotoxicity resulting from the compounds. B) sAPPβ in the media was immunoprecipitated with sβsw antibody and visualized on Western blot with LN27.
Culturing primary neurons from Tg2576 pups offers the advantage of equal APP expression, but suffers the drawback of lower yield since only half the pups contains the transgene. Furthermore, because neurons from each pup has to be plated separately, plating density and neuronal survivability may vary from mouse to mouse. Thus, total protein was used to normalize the data.
CNS-2 and LDN-0057228 were evaluated in the Tg2576 pup system (FIG. 17). Primary cortical neurons were harvested from P0 Tg2576 pups. Each pup yielded 3 wells on a 12-well plate at a plating density of 0.8×10^5 cells per well. After genotyping, neurons from each transgenic pup (APPsw +/−) were treated with DMSO, LDN-0057228 (20 μM), or CNS-2 (5 μM) at DIV-14 for 24 hours. […]

[2] = test system: sAPPβ (BACE1 cleavage of SEAP-APPwt) in SY5Y-BACEGFP-SEAPAPPwt cells; assay: cell-based BACE1 assay (sAPPβ modified ELISA)
Protocol: FIG. 1. An sAPPβ assay utilized to identify inhibitors of BACE1. The assay utilizes SY5Y cells stably overexpressing BACE-GFP and SEAP-APPwt. Cells are incubated with a candidate compound for 6 hours prior to harvesting media. BACE1-mediated cleavage of APP results in the release of sAPPβ into the media. α-secretase, a competing enzyme that is non-amyloidogenic, also cleaves APP to release […]. Using an sAPPβ-specific antibody (sβwt), SEAP-sAPPβ is specifically captured in a modified ELISA assay. Detection is achieved by addition of the fluorescent alkaline phosphatase substrate, 4-methylumbelliferyl phosphate (4-MUP).
FIG. 13. […] Compounds were tested in SY5Y-BACEGFP-SEAPAPPwt cells using the cell-based BACE1 assay. Select compounds were also investigated for Aβ-lowering effect using a commercial Aβ ELISA kit (BioSource). All compounds were tested at 8 concentrations (30, 10, 3, 1, 0.3, 0.1, 0.03, and 0.01 μM), and data points were analyzed with Origin software and fitted using a logistic model for IC50 determination.
As described in the Examples below, and depicted in FIG. 1, an sAPPβ ELISA assay may comprise cells, for example, SY5Y cells, transfected with a BACE1 reporter construct, such as a GFP-tagged BACE1 (BACE-GFP), and a wild type APP reporter construct, such as a secreted alkaline phosphatase (SEAP)-tagged wild type APP (SEAP-APPwt). BACE1 cleavage of the reporter-tagged APP (e.g. SEAP-APPwt) may result in secretion into the media of SEAP-tagged sAPPβ, which may be collected and specifically captured using an sAPPβ cleavage site-specific antibody (e.g. stβwt). Following washing, a substrate may be used, for example, the fluorescent alkaline phosphatase substrate 4-methylumbelliferyl phosphate (4-MUP), to detect the captured SEAP-sAPPβ.
A cell-based modified ELISA assay for measuring sAPPβ, the secreted ectodomain of β-amyloid precursor protein (APP) following β-secretase (BACE1) cleavage, was used to identify a class of compounds that interfered with the first step of sAPPβ generation. This assay has been described in International Application PCT/US2007/015938 (Published as International Publication No. WO 08/008463), which is herein incorporated in its entirety for all purposes.
The SY5Y-BACEGFP-SEAPAPPwt cell based assay was developed to discover novel small molecule modulators of BACE1 activity. SY5Y cells were stably transfected with GFP-tagged BACE1 (BACE-GFP) and secreted alkaline phosphatase (SEAP)-tagged wildtype APP (SEAP-APPwt). BACE1 cleavage of SEAP-APPwt results in secretion into the media of SEAP-tagged sAPPβ, which is collected and specifically captured using an sAPP0 cleavage site-specific antibody (sβwt). After washing, the fluorescent alkaline phosphatase substrate 4-methylumbelliferyl phosphate (4-MUP) is used to detect the captured SEAP-sAPPβ (FIG. 1).
The 15 LDDN compounds selected based on their 3-point dose-response profile were tested at 12 concentrations (ranging from 0.1 nM to 30 μM) in the cell-based BACE1 assay. The assay was conducted in 96-well format to maximize the Z′ factor. Compounds were characterized in duplicate cell plates, each containing 12 doses of compound in triplicate. Cell viability was measured at 6 and 24 hours using Promega's Cell Titer-Glo kit according to the manufacturer's protocol. The dose-response curves for sAPPβ reduction were plotted using Origin software and fitted using a logistic model for IC50 determination.
27 structural analogs of LDN-0057228 were synthesized and tested using the cell-based BACE1 assay in SY5Y-BACEGFP-SEAPAPPwt cells (FIG. 13). 4 analogs, in addition to the parent compound, were also assessed for Aβ40 lowering activity using a commercial Aβ kit (BioSource). Because LDN-0057228 resembles CNS monoamine transporter inhibitors, this analog series was given the designation “CNS.” LDN-0057228 gave an unexpectedly low potency (IC50˜20 μM for both sAPPβ and Aβ40 reduction) compared to the ˜7 μM potency obtained using the same compound in FIG. 8.

[3] = test system: sAPPβ in Tg2576 primary cortical neurons; assay: sAPPβ IP-Western in Tg2576 primary cortical neurons; assay type: cell-based, mouse; settings: LDN-0057228 20 μM, CNS-2 5 μM, 24 hours
Protocol: as §1
CNS-2 and LDN-0057228 were evaluated in the Tg2576 pup system (FIG. 17). Primary cortical neurons were harvested from P0 Tg2576 pups. Each pup yielded 3 wells on a 12-well plate at a plating density of 0.8×10^5 cells per well. After genotyping, neurons from each transgenic pup (APPsw +/−) were treated with DMSO, LDN-0057228 (20 μM), or CNS-2 (5 μM) at DIV-14 for 24 hours. Data from two independent experiments were pooled, representing primary neurons from 4 transgenic pups. LDN-0057228 (20 μM) reduced Aβ40 by 65% (p<0.001) and CNS-2 (5 μM) reduced Aβ40 by 60% (p=0.001) (FIG. 17A).

[4] = SAR study, 8 concentrations (30-0.01 μM), SY5Y-BACEGFP-SEAPAPPwt cells, read-out: IC50(sAPPβ)

| SMILES | reduction in Aβ40 ([1]; 20 μM) [%] | IC50 ([2]; 12 concentrations 0.1 nM to 30 μM, 96-well format (FIG. 8), read-out: cell-based IC50 (sAPPβ), 12-point dose-response) [µM] | IC50 [2, 4] [µM] | sAPPβ as visualized by IP-Western [3] | reduction in Aβ40 ([1]; 5 μM) [%] |
| --- | --- | --- | --- | --- | --- |
| Fc1ccc(C(OCCN2CCC[C@H]2CNCCc2ccccc2)c2ccc(F)cc2)cc1 [LDN-0057228] | 65 | ~7 | ~20 | reduced sAPPβ | – |
| O=C(CCc1ccccc1)NC[C@@H]1CCCN1CCOC(c1ccc(F)cc1)c1ccc(F)cc1 [CNS-2] | – | – | 8.9 | reduced sAPPβ | 60 |
